{"source": "patent US20130091932A1", "about": "“Process and Method for Broad Spectrum Amino Acid Challenged Urinary Organic Acids” (priority 2011, published 2013)", "key": {"[1]": {"details": "up to 15 g, human studies; cited from earlier work"}, "[2]": {"tested_on": "urinary metabolic markers", "assay": "38-person study: amino acid challenge, overnight urinary organic acid profile pre vs post challenge", "type": "in vivo, human", "details": "in some subjects", "procedure": "An initial pilot study was conducted using 3 subjects. A second study was conducted using 38 adult subjects who were chosen as having no diagnosed diseases and normal work habits. […] On two consecutive nights urine was collected for performing analysis of 46 compounds included in a profile of organic acids. On the second night, a single bolus of crystalline pure L-amino acids was consumed dissolved in water. All amino acids used were L-stereoisomers unless designated otherwise by the “D-”prefix. In the 3-person pilot, dosing included tyrosine, valine, leucine, isoleucine, histidine, and tryptophan as free-form or chloride salts at a total load of approximately 400 mg/kg body weight. For the 38-subject study, the dosing formula included a similar mixture containing alanine, valine, leucine, isoleucine, histidine, and tryptophan. Table 1 summarizes the amino acids included in the challenge formula, urinary metabolic markers affected and related nutrients or metabolic effects. The Amino acid challenge dose protocol was as follows. For 2 consecutive nights, participants collected overnight urine specimens. On the second night, before going to bed, they took approximately 400 mg/kg body weight of the challenge dose of amino acids. […]"}}}
{"smiles": "N[C@@H](Cc1c[nH]cn1)C(=O)O", "note": "[L-histidine]", "values": [{"measurement": "safety of administration", "setting": "[1]", "result": "administered safely"}]}
{"smiles": "C[C@H](N)C(=O)O", "note": "[L-alanine]", "values": [{"measurement": "levels of pyruvate, succinate, fumarate and malate", "setting": "[2]", "result": "increased levels"}]}
